Assay type in all cases: biochemical
The target in one assay is T1, Recombinant Human MMP-13 (Homo sapiens, UniProt P45452).
T1 construct: purchased R&D systems 511-MM
Put plainly: MMP-13 inhibitory activity (MMP-13 specific fluorescent substrate with quencher). The note with it: Recombinant Human MMP-13, fluorescent substrate, 25° C. for 1 h; read-out: IC50 MMP13 (Experimental Example 3). Summed up: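 Recombinant human MMP-13 with test compound, reaction started with quenched fluorogenic peptide 7-MCA-Pro-CHA-Gly-NVal-His-Ala-DPA in Tris-HCl buffer, 1 h at 25 °C, stopped with acetic acid. Fluorescence at Ex 325/Em 405 nm; % inhibition versus enzyme-free and inhibitor-free wells, reported as IC50 (μM).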

In another assay the target is T2, aggrecanase-1 (Homo sapiens, UniProt O75173).
T2 sequence (O75173 213-837): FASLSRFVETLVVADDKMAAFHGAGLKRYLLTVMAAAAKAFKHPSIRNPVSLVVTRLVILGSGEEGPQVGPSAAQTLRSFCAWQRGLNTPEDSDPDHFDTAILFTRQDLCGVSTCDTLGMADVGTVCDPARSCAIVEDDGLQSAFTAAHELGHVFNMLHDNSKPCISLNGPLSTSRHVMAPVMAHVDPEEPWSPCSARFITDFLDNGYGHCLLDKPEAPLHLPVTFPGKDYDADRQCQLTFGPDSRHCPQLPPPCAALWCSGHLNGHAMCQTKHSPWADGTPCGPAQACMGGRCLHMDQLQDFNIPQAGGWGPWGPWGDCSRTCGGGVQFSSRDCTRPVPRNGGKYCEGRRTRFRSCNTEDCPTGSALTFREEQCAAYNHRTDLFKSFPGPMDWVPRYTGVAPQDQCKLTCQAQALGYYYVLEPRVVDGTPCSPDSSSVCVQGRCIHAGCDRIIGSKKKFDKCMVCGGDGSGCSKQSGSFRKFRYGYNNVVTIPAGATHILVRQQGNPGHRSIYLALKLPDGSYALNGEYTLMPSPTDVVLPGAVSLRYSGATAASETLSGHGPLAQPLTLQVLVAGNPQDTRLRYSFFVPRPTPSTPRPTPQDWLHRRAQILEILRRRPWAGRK
The assay can be described thus: Aggrecanase-1 inhibitory action (Particle Assay, GAG release from aggrecan-containing polyacrylamide particles). The settings on record: aggrecanase-1 inhibitory action; read-out: IC50 AG1 (Experimental Example 1). A digest of the protocol: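 Enzyme and compound incubated with aggrecan-containing polyacrylamide particles in Tris-HCl buffer at 37° C for 15 h. Released GAG in supernatant measured with 1,9-dimethylmethylene blue at 595 nm against chondroitin sulfate standard; % inhibition from enzyme-free and inhibitor-free wells, reported as TC50 (μM).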

Another assay concerns the target T3, MMP-1 (Homo sapiens, UniProt P03956).
T3 sequence (P03956 100-469): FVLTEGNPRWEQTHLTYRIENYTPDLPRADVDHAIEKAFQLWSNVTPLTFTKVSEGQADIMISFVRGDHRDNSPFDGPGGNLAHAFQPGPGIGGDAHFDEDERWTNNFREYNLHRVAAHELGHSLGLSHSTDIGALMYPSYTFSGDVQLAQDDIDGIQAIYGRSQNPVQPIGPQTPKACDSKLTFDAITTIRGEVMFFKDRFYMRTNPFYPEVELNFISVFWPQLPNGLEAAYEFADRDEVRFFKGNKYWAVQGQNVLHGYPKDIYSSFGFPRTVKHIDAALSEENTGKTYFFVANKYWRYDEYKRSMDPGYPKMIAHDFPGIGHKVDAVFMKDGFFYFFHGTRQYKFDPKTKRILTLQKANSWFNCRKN
The assay can be described thus: MMP-1 inhibitory action (Type I collagen Activity Measurement kit, FITC-labeled collagen type I). The note with it: MMP-1 inhibitory action, FITC-labeled collagen type I, 37° C. for 3 hr; read-out: IC50 MMP1 (Experimental Example 2).

SMILES strings stand for the structures. pIC50: −log10 of the molar value.

Turning to `O=C(O)CCc1cccc(C2CC2(NS(=O)(=O)c2ccc(-c3ccc(Cl)cc3)s2)C(=O)O)c1` (stereo not drawn) [Example 2-180], the pIC50 at Recombinant Human MMP-13 is more than 7.00; on aggrecanase-1, more than 7.00; on MMP-1, not above 5.00.

`O=C(O)Cc1cccc(C2CC2(NS(=O)(=O)c2ccc(-c3ccc(Cl)cc3)s2)C(=O)O)c1` (stereo not drawn) [Example 2-181]: the pIC50 on Recombinant Human MMP-13 is more than 7.00; on aggrecanase-1 it was more than 7.00; on MMP-1, not above 6.00.

For the compound `O=C(O)[C@]1(NS(=O)(=O)c2ccc(-c3ccc(Cl)cc3)s2)C[C@@H]1c1cccc(CO)c1` [Example 2-182], the negative-log IC50 (pIC50) at Recombinant Human MMP-13 was more than 7.00; at aggrecanase-1 it was more than 7.00; at MMP-1 it was not above 5.00.

Regarding `CN(Cc1cccnc1)c1cccc([C@H]2C[C@@]2(NS(=O)(=O)c2ccc(-c3ccc(Cl)cc3)s2)C(=O)O)c1` [Example 2-183], the pIC50 on Recombinant Human MMP-13 is more than 7.00; on aggrecanase-1 it was more than 7.00; on MMP-1, not above 6.00.

On to `COC(=O)c1cccc(C2CC2(NS(=O)(=O)c2ccc(-c3ccc(Cl)cc3)s2)C(=O)O)c1` (stereo not drawn) [Example 2-184], for which the pIC50 was more than 6.00 at Recombinant Human MMP-13, more than 7.00 at aggrecanase-1 and not above 6.00 at MMP-1.

Take `O=C(O)C1(CS(=O)(=O)N2CCN(c3ccc(C(F)(F)F)cn3)CC2)CC1c1ccccc1` (stereo not drawn) [Example 2-185]: the pIC50 is more than 6.00 on Recombinant Human MMP-13, not above 6.00 at aggrecanase-1 and not above 5.00 on MMP-1.

As for `O=C(O)C1(CS(=O)(=O)N2CCN(c3ccc(Cl)cc3)CC2)CC1c1ccccc1` (stereo not drawn) [Example 2-186], the pIC50 at Recombinant Human MMP-13 is not above 6.00; on aggrecanase-1, not above 6.00; at MMP-1, not above 5.00.

On to `O=C(O)C1(CS(=O)(=O)c2ccc(-c3ccc(Cl)cc3)s2)CC1c1ccccc1` (stereo not drawn) [Example 2-187], for which the negative-log IC50 (pIC50) on Recombinant Human MMP-13, at aggrecanase-1 and on MMP-1 was not above 5.00 in each case.

In the case of `COC(=O)Cc1cccc(C2CC2(NS(=O)(=O)c2ccc(-c3ccc(Cl)cc3)s2)C(=O)O)c1` (stereo not drawn) [Example 2-188], the pIC50 on Recombinant Human MMP-13 was more than 7.00; at aggrecanase-1 it was more than 7.00; at MMP-1 it was not above 6.00.

For the compound `CN(C)C(=O)Cc1cccc(C2CC2(NS(=O)(=O)c2ccc(-c3ccc(Cl)cc3)s2)C(=O)O)c1` (stereo not drawn) [Example 2-189], the pIC50 on Recombinant Human MMP-13 is more than 7.00; on aggrecanase-1 it was more than 7.00; on MMP-1, not above 5.00.

On to `O=C(Cc1cccc(C2CC2(NS(=O)(=O)c2ccc(-c3ccc(Cl)cc3)s2)C(=O)O)c1)N1CCOCC1` (stereo not drawn) [Example 2-190], for which the negative-log IC50 (pIC50) at Recombinant Human MMP-13 is more than 7.00; on aggrecanase-1, more than 7.00; at MMP-1, not above 6.00.

As for `CN1CCN(C(=O)Cc2cccc(C3CC3(NS(=O)(=O)c3ccc(-c4ccc(Cl)cc4)s3)C(=O)O)c2)CC1` (stereo not drawn) [Example 2-191], the pIC50 on Recombinant Human MMP-13 was more than 7.00; on aggrecanase-1, more than 7.00; on MMP-1, not above 5.00.

As for `O=C(O)[C@@]1(NS(=O)(=O)c2ccc(-c3ccc(Cl)cc3)s2)C[C@H]1c1ccccc1` [Example 2-192], the negative logarithm of the IC50 (pIC50) on Recombinant Human MMP-13 was more than 6.00; at aggrecanase-1, more than 6.00; at MMP-1, not above 5.00.

In the case of `O=C(O)[C@]1(NS(=O)(=O)c2ccc(-c3cc(C(F)(F)F)on3)s2)C[C@@H]1c1ccccc1Br` [Example 2-193], the values for the pIC50 at Recombinant Human MMP-13, at aggrecanase-1 and at MMP-1 were more than 6.00, more than 6.00 and not above 5.00, respectively.

As to `O=C(Cc1ccccc1C1CC1(NS(=O)(=O)c1ccc(-c2ccc(Cl)cc2)s1)C(=O)O)N1CCOCC1` (stereo not drawn) [Example 2-194], the figures for the pIC50 at Recombinant Human MMP-13, on aggrecanase-1 and on MMP-1 were more than 6.00, more than 6.00 and not above 5.00, respectively.

`CN1CCN(C(=O)Cc2ccccc2C2CC2(NS(=O)(=O)c2ccc(-c3ccc(Cl)cc3)s2)C(=O)O)CC1` (stereo not drawn) [Example 2-195]: the values for the pIC50 on Recombinant Human MMP-13, at aggrecanase-1 and at MMP-1 were more than 6.00, more than 6.00 and not above 5.00, respectively.

As to `O=C(O)c1ccccc1C1CC1(NS(=O)(=O)c1ccc(-c2ccc(Cl)cc2)s1)C(=O)O` (stereo not drawn) [Example 2-196], the pIC50 is more than 7.00 on Recombinant Human MMP-13, more than 7.00 on aggrecanase-1 and not above 6.00 at MMP-1.

With `O=C(O)C1(NS(=O)(=O)c2ccc(-c3ccc(Cl)cc3)s2)CC1c1cccc(OCCN2CCOCC2)c1` (stereo not drawn) [Example 2-197], the pIC50 on Recombinant Human MMP-13 was more than 6.00; on aggrecanase-1, more than 6.00; at MMP-1, not above 5.00.

In the case of `CN1CCN(CCOc2cccc(C3CC3(NS(=O)(=O)c3ccc(-c4ccc(Cl)cc4)s3)C(=O)O)c2)CC1` (stereo not drawn) [Example 2-198], the pIC50 at Recombinant Human MMP-13 was more than 6.00; on aggrecanase-1, more than 6.00; at MMP-1, not above 5.00.

Turning to `O=C(O)C1(NS(=O)(=O)c2ccc(-c3cc(C(F)(F)F)on3)s2)CC1c1cccc([N+](=O)[O-])c1` (stereo not drawn) [Example 2-199], the pIC50 is more than 6.00 at Recombinant Human MMP-13, more than 6.00 at aggrecanase-1 and not above 5.00 at MMP-1.

Consider `CN1CCN(C(=O)c2cccc(C3CC3(NS(=O)(=O)c3ccc(-c4ccc(Cl)cc4)s3)C(=O)O)c2)CC1` (stereo not drawn) [Example 2-200], for which the pIC50 is more than 6.00 on Recombinant Human MMP-13, more than 6.00 at aggrecanase-1 and not above 5.00 on MMP-1.

Regarding `Nc1cccc(C2CC2(NS(=O)(=O)c2ccc(-c3cc(C(F)(F)F)on3)s2)C(=O)O)c1` (stereo not drawn) [Example 2-201], the pIC50 is more than 7.00 at Recombinant Human MMP-13, more than 6.00 on aggrecanase-1 and not above 5.00 at MMP-1.

As to `O=C(O)C1(NS(=O)(=O)c2ccc(-c3ccc(Cl)cc3)s2)CC1c1ccc(Br)cc1` (stereo not drawn) [Example 2-202], the negative logarithm of the IC50 (pIC50) on Recombinant Human MMP-13 is more than 6.00; on aggrecanase-1, more than 6.00; on MMP-1, not above 5.00.

Turning to `O=C(O)C1(NS(=O)(=O)c2ccc(-c3ccc(Cl)cc3)s2)CC1c1ccc(Br)cc1` (stereo not drawn) [Example 2-203], the results for the pIC50 at Recombinant Human MMP-13, at aggrecanase-1 and on MMP-1 were more than 7.00, more than 6.00 and not above 5.00, respectively.

Take `CN(C)C(=O)Cc1ccccc1C1CC1(NS(=O)(=O)c1ccc(-c2ccc(Cl)cc2)s1)C(=O)O` (stereo not drawn) [Example 2-204]: the pIC50 at Recombinant Human MMP-13 is more than 6.00; on aggrecanase-1, more than 7.00; at MMP-1 it was not above 5.00.

With `COC(=O)c1ccccc1C1CC1(NS(=O)(=O)c1ccc(-c2ccc(Cl)cc2)s1)C(=O)O` (stereo not drawn) [Example 2-205], the pIC50 on Recombinant Human MMP-13 was more than 6.00; on aggrecanase-1, more than 7.00; on MMP-1, not above 5.00.

Turning to `O=C(O)[C@]1(NS(=O)(=O)c2ccc(-c3ccc(Cl)cc3)s2)C[C@@H]1c1ccccc1CO` [Example 2-206], the pIC50 is more than 7.00 on Recombinant Human MMP-13, more than 7.00 at aggrecanase-1 and not above 6.00 at MMP-1.

Regarding `CC(=O)N1Cc2ccccc2C2(C1)CC2(NS(=O)(=O)c1ccc(-c2ccc(Cl)cc2)s1)C(=O)O` (stereo not drawn) [Example 2-207], the figures for the pIC50 on Recombinant Human MMP-13, on aggrecanase-1 and on MMP-1 were more than 6.00, more than 6.00 and not above 5.00, respectively.

`COC(=O)CCc1cccc(C2CC2(NS(=O)(=O)c2ccc(-c3ccc(Cl)cc3)s2)C(=O)O)c1` (stereo not drawn) [Example 2-208]: the figures for the pIC50 on Recombinant Human MMP-13, on aggrecanase-1 and at MMP-1 were more than 7.00, more than 7.00 and not above 6.00, respectively.

Take `O=C(CCc1cccc(C2CC2(NS(=O)(=O)c2ccc(-c3ccc(Cl)cc3)s2)C(=O)O)c1)N1CCOCC1` (stereo not drawn) [Example 2-209]: the pIC50 at Recombinant Human MMP-13 was more than 7.00; on aggrecanase-1, more than 7.00; at MMP-1, not above 6.00.

As for `CN1CCN(C(=O)CCc2cccc(C3CC3(NS(=O)(=O)c3ccc(-c4ccc(Cl)cc4)s3)C(=O)O)c2)CC1` (stereo not drawn) [Example 2-210], the results for the negative logarithm of the IC50 (pIC50) at Recombinant Human MMP-13, at aggrecanase-1 and at MMP-1 were more than 7.00, more than 6.00 and not above 5.00, respectively.

As a reminder, the pIC50 is the IC50 on a negative log10 scale, so that one unit is a factor of ten.

The values are drawn from patent US20080261994A1, “CYCLOPROPANE COMPOUNDS AND PHARMACEUTICAL USE THEREOF” (Japan Tobacco Inc., priority 2003, published 2008).
